Experimental data published in paper PMC9794608 (Frontiers in Veterinary Science, 2022).
Where two headings read alike, the source gives them in different places.

Assays:
[1] = Plasma pharmacokinetics after single and repeat oral dose, LC-MS/MS, non-compartmental analysis; type: in vivo, Beagle dogs; conditions: for Sapanisertib accumulation with repeat dosing: 0.1 mg/kg p.o. QOD; for Cmax: read-out: CMAX (sapanisertib in plasma)
Method: (§1) Laboratory Beagle dogs (Charles River Labs, Mattawan, MI) served as surrogates in testing compounds proposed for application in canine clinical cancer care. The animals were at least six months old and weighed 6.4–8.8 kg at the initiation of study. They had routine veterinary care and had not been used in any previous studies. The study was conducted in AAALAC-accredited animal facilities [Charles River Laboratories, Inc., Mattawan, MI; NIH Office of Laboratory Animal Welfare Assurance approval (https://olaw.nih.gov/assured/app/index.html)], under review, monitoring, and approval of the facility's Institutional Animal Care and Use Committee according to U.S. Public Health Service national guidelines and regulations for the care and use of laboratory animals. The study was not designed to incorporate Good Laboratory Practices (GLP) regulatory criteria. Animals on study were monitored daily or more frequently and body weights were recorded, while periodic specimens were obtained for laboratory analyses. Clinical pathology analyses were included for hematology, serum chemistry, coagulation, urinalysis, and chemical bioanalysis was accomplished for pharmacokinetics (PK) (Table 1, repeat dose study) (Charles River Laboratories, Mattawan, MI).
Six male and six female beagle dogs were enrolled in a parallel, three-arm, fixed, repeat oral-dose study. […] In Group 2, two male (23001, 23002) and two female (23501, 23502) dogs were given sapanisertib alone (0.1 mg/kg) every other day (p.o., QOD). […] All dogs were dosed on study day 1 to obtain single dose PK samples, and then dosed serially days 4–20. Dogs were fasted overnight prior to dosing and fed ad libitum 2 h (hrs) following dose administration.
Plasma samples for PK were collected at pre-dose (-7 days), then beginning day 1 following the initial dose of each study group at 1, 2, 4, 8, 24, 48, and 72 h. On day 6, plasma samples were collected pre-dose, then 1, 2, 4, 8, and 24 h post-dose. On days 10 and 15, a 2-h post-dose sample was collected. On day 20, plasma samples were drawn at pre-dose and 1, 2, 4, 8, 24, 48, and 72 h post-dose. Treatment schedule and clinical pathology specimen sampling intervals are outlined in Table 1.
Each 50 μL aliquot of known concentration standards, quality control sample, or study sample was mixed with 200 μL of working internal standard solution (10 ng/mL in acetonitrile). The samples were vortexed and centrifuged. A 150 μL aliquot of the resulting supernatant was transferred to a clean 96-well plate, evaporated, and reconstituted with 100 μL of water/acetonitrile (40/60, v/v). An aliquot was injected onto an LC-MS/MS XBridge BEH C18 liquid chromatography system (Waters Associates, Framingham, MA) having 50 x 2.1 mm (2.5 μm particle size) column with an isocratic flow consisting of water/formic acid (100/0.1, v/v) and acetonitrile/formic acid (100/0.1, v/v) at a flow rate of 0.3000 mL/min for analysis. The analyte and internal standard were detected using an API 6500+ triple quadrupole LC-MS/MS system (AB Sciex, LLC, Framingham, MA) equipped with an ESI (TurboIonSpray®) ionization source operated in the positive ion mode.
A non-compartmental approach to PK analysis was employed using Phoenix WinNonlin v8.3 (Certara Corp, Cary, NC) that was validated per FDA 21CFR Part 11 regulations. The maximum plasma concentration (CMAX) and the time of maximum plasma concentration (TMAX) were recorded as observed values. […] AUCINF (the AUC from time zero to infinity) was calculated by extrapolation by dividing CLAST (the last measurable drug concentration) by the rate constant of the terminal phase, λZ. This constant was determined from the slope of the terminal phase of the concentration-time curve using uniformly-weighted least-squares as the estimation procedure and acceptance criteria of (i) adjusted r^2 > 0.8, (ii) includes > 3 time points in the terminal phase occurring after the TMAX. […]

laboratory beagle dogs = assay: Repeat dose tolerability: clinical observations, hematology, serum chemistry, coagulation, urinalysis; type: in vivo
Method: as §1
Six male and six female beagle dogs were enrolled in a parallel, three-arm, fixed, repeat oral-dose study. […] All dogs were dosed on study day 1 to obtain single dose PK samples, and then dosed serially days 4–20. Dogs were fasted overnight prior to dosing and fed ad libitum 2 h (hrs) following dose administration.
On days 10 and 15, a 2-h post-dose sample was collected. […] Treatment schedule and clinical pathology specimen sampling intervals are outlined in Table 1. […]
Sampling for hematology, serum chemistry, coagulation and urinalysis was conducted to facilitate monitoring treatment effects over various time points, and values obtained were compared to pre-treatment measurements for each subject (Table 1).

[2] = First dose (Day 1), sapanisertib 0.1 mg/kg p.o., mean (%CV), n = 4
[3] = canine sapanisertib only group 0.1 mg/kg versus human cancer patients receiving 4 mg oral sapanisertib

CC(C)n1nc(-c2ccc3oc(N)nc3c2)c2c(N)ncnc21 [Sapanisertib]
Sapanisertib accumulation with repeat dosing ([1]; day 1 to day 20): did not display accumulation
Sapanisertib accumulation with repeat dosing ([1]; day 1 to day 20, listed as sapanisertib): not observed to significantly accumulate
AUCINF (sapanisertib in plasma) [1, 2]: 247.5 (41%) hr^*ng/mL
V/F (sapanisertib) [1, 2]: 3.85 (34%) L/kg
V/F (sapanisertib) ([1]; Steady-state (Day 20), sapanisertib 0.1 mg/kg p.o. QOD, mean (%CV), n = 4): 3.97 (33%) L/kg
Sapanisertib plasma level at day 15 ([1]; approximately 24 h from the previous dose, Groups 2,3): minimal detectable
half-life ([1]; both sexes, beagle, dog, plasma, po, 0.1 mg/kg, 0.1 mg/kg p.o., day 1 to day 20, read-out: Sapanisertib half-life (range)): 4.8 to 6.8 h
AUC(0-inf) ([1]; both sexes, beagle, dog, plasma, po, 0.1 mg/kg, First dose (Day 1), sapanisertib 0.1 mg/kg p.o., mean (%CV), n = 4, read-out: AUCINF (sapanisertib in plasma)): 0.248 µg·h/mL
half-life ([1]; both sexes, beagle, dog, plasma, po, 0.1 mg/kg, First dose (Day 1), sapanisertib 0.1 mg/kg p.o., mean (%CV), n = 4, read-out: T1/2 (sapanisertib in plasma) (converted)): 5.94 h
Tmax ([1]; both sexes, beagle, dog, plasma, po, 0.1 mg/kg, First dose (Day 1), sapanisertib 0.1 mg/kg p.o., median (range), n = 4, read-out: TMAX (sapanisertib in plasma)): 2 h
Cmax ([1]; both sexes, beagle, dog, plasma, po, 0.1 mg/kg, Steady-state (Day 6), sapanisertib 0.1 mg/kg p.o. QOD, mean (%CV), n = 4): 0.0281 µg/mL
Cmax ([1]; both sexes, beagle, dog, plasma, po, 0.1 mg/kg, Steady-state (Day 10), sapanisertib 0.1 mg/kg p.o. QOD, mean (%CV), n = 4): 0.0236 µg/mL
AUC ([1]; both sexes, beagle, dog, plasma, po, 0.1 mg/kg, Steady-state (Day 20), sapanisertib 0.1 mg/kg p.o. QOD, mean (%CV), n = 4, read-out: AUCTAU (sapanisertib in plasma)): 0.25 µg·h/mL
Cmax ([1]; both sexes, beagle, dog, plasma, po, 0.1 mg/kg, Steady-state (Day 20), sapanisertib 0.1 mg/kg p.o. QOD, mean (%CV), n = 4): 0.0274 µg/mL
half-life ([1]; both sexes, beagle, dog, plasma, po, 0.1 mg/kg, Steady-state (Day 20), sapanisertib 0.1 mg/kg p.o. QOD, mean (%CV), n = 4, read-out: T1/2 (sapanisertib in plasma) (converted)): 6.28 h
Tmax ([1]; both sexes, beagle, dog, plasma, po, 0.1 mg/kg, Steady-state (Day 20), sapanisertib 0.1 mg/kg p.o. QOD, median (range), n = 4, read-out: TMAX (sapanisertib in plasma)): 2 h
Tmax ([1]; both sexes, beagle, dog, plasma, po, 0.1 mg/kg, dogs, 0.1 mg/kg p.o., read-out: Sapanisertib Tmax on average): 2 h
CL/F ([1]; both sexes, beagle, dog, plasma, po, First dose (Day 1), sapanisertib 0.1 mg/kg p.o., mean (%CV), n = 4): 0.47 L/h/kg
Cmax ([1]; both, beagle, dog, plasma, po, 0.1 mg/kg, First dose (Day 1), sapanisertib 0.1 mg/kg p.o., alone or with trametinib […] (see label), arithmetic mean (%CV), n = 4): 0.0263 µg/mL
Mean animal to human exposure ratio, AUCINF [1, 3]: 1.31
Mean animal to human exposure ratio, CMAX [1, 3]: 1.11
Mean animal to human exposure ratio, T1/2 [1, 3]: 0.91
Sapanisertib absorption time (range) ([1]; initial and repeat dose, 0.1 mg/kg p.o.): 1 to 4 h
Serum ALT, times pre-study (laboratory beagle dogs; Day 20, one female dog (23502), considered unlikely to be inhibitor related): 2.10 x
Dogs with minimal to marked increases in urine protein concentration (laboratory beagle dogs; Day 25, greater than pre-study values, 4 dogs per group): three of four
Urine protein concentration, highest value (up to) (laboratory beagle dogs; Day 25, semi-quantitatively by urine dipstick): ≥ 1,000 mg/dL
Urine glucose (up to) (laboratory beagle dogs; Day 25, semi-quantitatively by urine dipstick, individuals of both sexes): up to 250 mg/dL
Urine pH (up to) (laboratory beagle dogs; Day 25, Group 2 males and both sexes in Group 3): ≥ 9.0 pH
Activated partial thromboplastin time (APTT) prolonged, times pretreatment (up to) (laboratory beagle dogs; Days 6, 11, 15, 22, and/or 25, individual dogs, within normal reference range): up to 1.21 x
Serum phosphorus concentrations, times pre-study (as low as) (laboratory beagle dogs; Days 7 and 20, both sexes in all groups): ≥ 0.74 x
Cholesterol concentrations, times pre-study (up to) (laboratory beagle dogs; Days 7 and 20, both sexes in Group 2 and males in Group 3): up to 1.50 x
Group mean APTT versus dogs given trametinib alone (laboratory beagle dogs; at 11 days and thereafter, p < 0.05): significantly different
Prothrombin time (PT) assays (laboratory beagle dogs; compared to pretreatment samples): No analogous effect
Blood neutrophils, times individual pre-study values (laboratory beagle dogs; one male (23002) and one female (23501), Group 2, days 20 and 25, up to): up to 1.95 x
Individual animal fibrinogen concentration, times pretreatment (up to) (laboratory beagle dogs; various time points, most pronounced in Group 3): up to 2.61 x
